Measurements published in US7220743B2, “Heterocyclic CB1 receptor antagonists” (Hoffmann-La Roche Inc., priority 2005, dated 2007).

Target: T1, cannabinoid CB1 receptors (Homo sapiens, UniProt P21554)
T1 construct: expressed in transfected cells; host or cells: HEK cells, transient, Semliki Forest Virus system; membrane preparation
Experiment: Affinity for cannabinoid CB1 receptors, [3H]-CP-55,940 radioligand binding on HEK cell membranes
Details: CB1 receptor affinity, [3H]-CP-55,940, HEK membranes
Description: The affinity of the compounds of the invention for cannabinoid CB1 receptors was determined using membrane preparations of human embryonic kidney (HEK) cells in which the human cannabis […] receptor is transiently transfected using the Semliki Forest Virus system in conjunction with [3H]-CP-55,940 as radioligand. After incubation of a freshly prepared cell membrane preparation with the [3H]-ligand, with or without addition of compounds of the invention, separation of bound and free ligand was performed by filtration over glassfiber filters. Radioactivity on the filter was measured by liquid scintillation counting.

T1 sequence (P21554 whole entry): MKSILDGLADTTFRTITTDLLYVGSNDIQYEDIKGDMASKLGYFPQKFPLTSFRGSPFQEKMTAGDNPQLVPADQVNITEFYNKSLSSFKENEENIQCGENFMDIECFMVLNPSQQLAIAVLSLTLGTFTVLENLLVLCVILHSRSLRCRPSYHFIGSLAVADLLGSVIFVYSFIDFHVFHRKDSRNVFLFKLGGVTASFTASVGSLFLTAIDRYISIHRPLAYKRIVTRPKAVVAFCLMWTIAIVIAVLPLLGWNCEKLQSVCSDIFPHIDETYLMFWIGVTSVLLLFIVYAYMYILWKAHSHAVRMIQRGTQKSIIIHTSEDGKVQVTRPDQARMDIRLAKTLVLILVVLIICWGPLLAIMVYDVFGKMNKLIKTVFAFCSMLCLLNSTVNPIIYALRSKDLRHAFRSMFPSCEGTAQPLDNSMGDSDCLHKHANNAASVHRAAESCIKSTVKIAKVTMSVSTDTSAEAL

IC50: 6 nM
SMILES: O=C(c1cc2c(cc1F)OC1(O2)c2ccccc2C=Cc2ccccc21)N1CCOCC1 [Example 3, 4-[(6-fluoro-spiro[1,3-benzodioxole-2,5′-[5H]dibenzo[a,d]cyclohepten]-5-yl)carbonyl]-morpholine]
